# In PubChem BioAssay AID1259407 (Chemical Carcinogenesis Research Information System (CCRIS), 2018):
# Calls of active or inactive are those of the source. The rule behind the calls is not given here.
# System: CCRIS mutagenicity, Ames/micronucleus/aberration tests
# Assay: CCRIS mutagenicity studies
# [1] = Test System: AMES SALMONELLA TYPHIMURIUM, Strain/Indicator: TA98, Metabolic Activation: NONE, Method: STANDARD PLATE
# [2] = Test System: AMES SALMONELLA TYPHIMURIUM, Strain/Indicator: TA98, Metabolic Activation: RAT, LIVER, S-9, AROCLOR 1254, Method: STANDARD PLATE
# [3] = Test System: AMES SALMONELLA TYPHIMURIUM, Strain/Indicator: TA100, Metabolic Activation: NONE, Method: STANDARD PLATE
# [4] = Test System: AMES SALMONELLA TYPHIMURIUM, Strain/Indicator: TA100, Metabolic Activation: RAT, LIVER, S-9, AROCLOR 1254, Method: STANDARD PLATE
# [5] = Test System: AMES SALMONELLA TYPHIMURIUM, Strain/Indicator: TA102, Metabolic Activation: NONE, Method: STANDARD PLATE
smiles,measurement,setting,value
Cc1ccc(O)cc1,mutagenic call,"Test System: Ames Salmonella typhimurium, Strain/Indicator: TA98, Metabolic Activation: Hamster, Liver, S-9, Aroclor 1254 (10%), Method: Preincubation",inactive; negative
same,mutagenic call,"Test System: Ames Salmonella typhimurium, Strain/Indicator: TA98, Metabolic Activation: None, Method: Preincubation",inactive; negative
same,mutagenic call,"Test System: Ames Salmonella typhimurium, Strain/Indicator: TA98, Metabolic Activation: Rat, Liver, S-9, Aroclor 1254 (10%), Method: Preincubation",inactive; negative
same,mutagenic call,"Test System: Ames Salmonella typhimurium, Strain/Indicator: TA100, Metabolic Activation: Rat, Liver, S-9, Aroclor 1254 (10%), Method: Preincubation",inactive; negative
same,mutagenic call,"Test System: Ames Salmonella typhimurium, Strain/Indicator: TA1535, Metabolic Activation: Rat, Liver, S-9, Aroclor 1254 (10%), Method: Preincubation",inactive; negative
same,mutagenic call,"Test System: Ames Salmonella typhimurium, Strain/Indicator: TA1537, Metabolic Activation: Rat, Liver, S-9, Aroclor 1254 (10%), Method: Preincubation",inactive; negative
CC(=O)CC(C)(C)O,mutagenic call,"Test System: AMES SALMONELLA TYPHIMURIUM, Strain/Indicator: TA98, Metabolic Activation: HAMSTER, LIVER, S-9, AROCLOR 1254, Method: STANDARD PLATE",inactive; negative
same,mutagenic call,[1],inactive; negative
same,mutagenic call,[2],inactive; negative
same,mutagenic call,"Test System: AMES SALMONELLA TYPHIMURIUM, Strain/Indicator: TA100, Metabolic Activation: HAMSTER, LIVER, S-9, AROCLOR 1254, Method: STANDARD PLATE",inactive; negative
same,mutagenic call,[3],inactive; negative
same,mutagenic call,[4],inactive; negative
same,mutagenic call,"Test System: AMES SALMONELLA TYPHIMURIUM, Strain/Indicator: TA1535, Metabolic Activation: HAMSTER, LIVER, S-9, AROCLOR 1254, Method: STANDARD PLATE",inactive; negative
same,mutagenic call,"Test System: AMES SALMONELLA TYPHIMURIUM, Strain/Indicator: TA1535, Metabolic Activation: NONE, Method: STANDARD PLATE",inactive; negative
same,mutagenic call,"Test System: AMES SALMONELLA TYPHIMURIUM, Strain/Indicator: TA1535, Metabolic Activation: RAT, LIVER, S-9, AROCLOR 1254, Method: STANDARD PLATE",inactive; negative
same,mutagenic call,"Test System: AMES SALMONELLA TYPHIMURIUM, Strain/Indicator: TA1537, Metabolic Activation: HAMSTER, LIVER, S-9, AROCLOR 1254, Method: STANDARD PLATE",inactive; negative
same,mutagenic call,"Test System: AMES SALMONELLA TYPHIMURIUM, Strain/Indicator: TA1537, Metabolic Activation: NONE, Method: STANDARD PLATE",inactive; negative
same,mutagenic call,"Test System: AMES SALMONELLA TYPHIMURIUM, Strain/Indicator: TA1537, Metabolic Activation: RAT, LIVER, S-9, AROCLOR 1254, Method: STANDARD PLATE",inactive; negative
same,mutagenic call,"Test System: AMES SALMONELLA TYPHIMURIUM, Strain/Indicator: TA1538, Metabolic Activation: HAMSTER, LIVER, S-9, AROCLOR 1254, Method: STANDARD PLATE",inactive; negative
same,mutagenic call,"Test System: AMES SALMONELLA TYPHIMURIUM, Strain/Indicator: TA1538, Metabolic Activation: NONE, Method: STANDARD PLATE",inactive; negative
same,mutagenic call,"Test System: AMES SALMONELLA TYPHIMURIUM, Strain/Indicator: TA1538, Metabolic Activation: RAT, LIVER, S-9, AROCLOR 1254, Method: STANDARD PLATE",inactive; negative
same,mutagenic call,"Test System: Mouse lymphoma, Strain/Indicator: L5178Y (tk+/tk-), Metabolic Activation: None, Method: Suspension/plate",inactive; negative
same,mutagenic call,"Test System: Mouse lymphoma, Strain/Indicator: L5178Y (tk+/tk-), Metabolic Activation: Rat, Liver, S-9, Aroclor 1254, Method: Suspension/plate",inactive; negative
C=C(C#N)C(=O)OCC,mutagenic call,[3],inactive; negative
same,mutagenic call,[4],inactive; negative
CC1(C)CC[C@]2(C(=O)O)CC[C@]3(C)C(=CC[C@@H]4[C@@]5(C)C[C@H](O)[C@H](O[C@@H]6O[C@H](CO)[C@@H](O)[C@H](O)[C@H]6O)C(C)(C(=O)O)C5CC[C@]43C)[C@H]2C1 (stereo partly specified),mutagenic call,"Test System: AMES SALMONELLA TYPHIMURIUM, Strain/Indicator: TA97, Metabolic Activation: NONE, Method: STANDARD PLATE",inactive; negative
same,mutagenic call,"Test System: AMES SALMONELLA TYPHIMURIUM, Strain/Indicator: TA97, Metabolic Activation: RAT, LIVER, S-9, AROCLOR 1254, Method: STANDARD PLATE",inactive; negative
same,mutagenic call,[1],inactive; negative
same,mutagenic call,[2],inactive; negative
same,mutagenic call,[3],inactive; negative
same,mutagenic call,[4],inactive; negative
same,mutagenic call,[5],inactive; negative
same,mutagenic call,"Test System: AMES SALMONELLA TYPHIMURIUM, Strain/Indicator: TA102, Metabolic Activation: RAT, LIVER, S-9, AROCLOR 1254, Method: STANDARD PLATE",inactive; negative
COO,mutagenic call,[3],inactive; negative
same,mutagenic call,[5],active; positive
CC(C)(c1ccc(O)cc1)c1ccc(O)cc1,mutagenic call,"End Point: IN VITRO CHROMOSOMAL ABERRATIONS, Test System: CHO CELLS, Metabolic Activation: RAT, LIVER, S-9, AROCLOR 1254",inactive; negative; previous trial yielded positive result at 50 ug/ml but no dose-respons
same,mutagenic call,"End Point: In vitro micronucleus, Test System: Human lymphoblastoid AHH-1 cells, Metabolic Activation: None",active; positive (all doses >10.8 ug/ml)
same,mutagenic call,"End Point: In vivo micronucleus, Test System: Bone marrow polychromatic erythrocytes, Species: Mouse, Strain/Sex: Swiss/Male, female, Route: Oral",inactive; negative
same,mutagenic call,"Test System: AMES SALMONELLA TYPHIMURIUM, Strain/Indicator: TA97A, Metabolic Activation: NONE, Method: STANDARD PLATE",inactive; negative
same,mutagenic call,"Test System: AMES SALMONELLA TYPHIMURIUM, Strain/Indicator: TA97A, Metabolic Activation: RAT LIVER S-9, PHENOBARBITAL AND BETA-NAPHTHAFLAVONE, Method: STANDARD PLATE",inactive; negative
same,mutagenic call,"Test System: AMES SALMONELLA TYPHIMURIUM, Strain/Indicator: TA98, Metabolic Activation: NONE, Method: PREINCUBATION",inactive; negative
same,mutagenic call,[1],inactive; negative
same,mutagenic call,"Test System: AMES SALMONELLA TYPHIMURIUM, Strain/Indicator: TA98, Metabolic Activation: RAT LIVER S-9, AROCLOR 1254, Method: STANDARD PLATE",inactive; negative
same,mutagenic call,"Test System: AMES SALMONELLA TYPHIMURIUM, Strain/Indicator: TA98, Metabolic Activation: RAT LIVER S-9, PHENOBARBITAL AND BETA-NAPHTHAFLAVONE, Method: STANDARD PLATE",inactive; negative
same,mutagenic call,"Test System: AMES SALMONELLA TYPHIMURIUM, Strain/Indicator: TA98, Metabolic Activation: RAT LIVER S-9, PHENOBARBITAL AND BETA-NAPHTHOFLAVONE, Method: PREINCUBATION",inactive; negative
same,mutagenic call,"Test System: AMES SALMONELLA TYPHIMURIUM, Strain/Indicator: TA98, Metabolic Activation: S-9, Method: PREINCUBATION",inactive; negative
same,mutagenic call,"Test System: AMES SALMONELLA TYPHIMURIUM, Strain/Indicator: TA100, Metabolic Activation: NONE, Method: PREINCUBATION",inactive; negative
same,mutagenic call,[3],inactive; negative
same,mutagenic call,"Test System: AMES SALMONELLA TYPHIMURIUM, Strain/Indicator: TA100, Metabolic Activation: RAT LIVER S-9, AROCLOR 1254, Method: STANDARD PLATE",inactive; negative
same,mutagenic call,"Test System: AMES SALMONELLA TYPHIMURIUM, Strain/Indicator: TA100, Metabolic Activation: RAT LIVER S-9, PHENOBARBITAL AND BETA-NAPHTHAFLAVONE, Method: STANDARD PLATE",inactive; negative
same,mutagenic call,"Test System: AMES SALMONELLA TYPHIMURIUM, Strain/Indicator: TA100, Metabolic Activation: RAT LIVER S-9, PHENOBARBITAL AND BETA-NAPHTHOFLAVONE, Method: PREINCUBATION",inactive; negative
same,mutagenic call,"Test System: AMES SALMONELLA TYPHIMURIUM, Strain/Indicator: TA100, Metabolic Activation: S-9, Method: PREINCUBATION",inactive; negative
same,mutagenic call,[5],inactive; negative
same,mutagenic call,"Test System: AMES SALMONELLA TYPHIMURIUM, Strain/Indicator: TA102, Metabolic Activation: RAT LIVER S-9, PHENOBARBITAL AND BETA-NAPHTHAFLAVONE, Method: STANDARD PLATE",inactive; negative
same,mutagenic call,"Test System: AMES SALMONELLA TYPHIMURIUM, Strain/Indicator: TA1535, Metabolic Activation: NONE, Method: PREINCUBATION",inactive; negative
same,mutagenic call,"Test System: AMES SALMONELLA TYPHIMURIUM, Strain/Indicator: TA1535, Metabolic Activation: RAT LIVER S-9, PHENOBARBITAL AND BETA-NAPHTHOFLAVONE, Method: PREINCUBATION",inactive; negative
same,mutagenic call,"Test System: AMES SALMONELLA TYPHIMURIUM, Strain/Indicator: TA1537, Metabolic Activation: NONE, Method: PREINCUBATION",inactive; negative
same,mutagenic call,"Test System: AMES SALMONELLA TYPHIMURIUM, Strain/Indicator: TA1537, Metabolic Activation: RAT LIVER S-9, PHENOBARBITAL AND BETA-NAPHTHOFLAVONE, Method: PREINCUBATION",inactive; negative
same,mutagenic call,"Test System: CHINESE HAMSTER V-79, Strain/Indicator: V-79 (HPRT)/6-THIOGUANINE, Metabolic Activation: NONE",inactive; negative
same,mutagenic call,"Test System: E.COLI, Strain/Indicator: WP2UVRA, Metabolic Activation: NONE, Method: PREINCUBATION",inactive; negative
same,mutagenic call,"Test System: E.COLI, Strain/Indicator: WP2UVRA, Metabolic Activation: RAT LIVER S-9, PHENOBARBITAL AND BETA-NAPHTHOFLAVONE, Method: PREINCUBATION",inactive; negative
